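All cell lines were grown in 96-well plates and treated with compound for 48 hours. TGI is the concentration that stops growth completely.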
Columns and labels:
Experiment in all cases: NCI-60 cell line screen, 48 h
KM20L2 colon = system: KM20L2 colon
SF-539 CNS = system: SF-539 CNS
RPMI-8226 leukemia = system: RPMI-8226 leukemia
SNB-19 CNS = system: SNB-19 CNS
SK-MEL-28 melanoma = system: SK-MEL-28 melanoma
NCI-H460 lung = system: NCI-H460 lung
KM12 colon = system: KM12 colon
UO-31 renal = system: UO-31 renal
SK-MEL-2 melanoma = system: SK-MEL-2 melanoma
SK-MEL-5 melanoma = system: SK-MEL-5 melanoma
IGROV1 ovarian = system: IGROV1 ovarian
M19-MEL melanoma = system: M19-MEL melanoma
SF-268 CNS = system: SF-268 CNS
SN12C renal = system: SN12C renal
EKVX NSCLC = system: EKVX NSCLC
DMS 114 small cell lung = system: DMS 114 small cell lung
TK-10 renal = system: TK-10 renal
OVCAR-8 ovarian = system: OVCAR-8 ovarian
HCT-116 colon = system: HCT-116 colon
SW-620 colon = system: SW-620 colon
COLO 205 colon = system: COLO 205 colon
M14 melanoma = system: M14 melanoma
OVCAR-3 ovarian = system: OVCAR-3 ovarian
SR leukemia = system: SR leukemia
HT29 colon = system: HT29 colon
OVCAR-4 ovarian = system: OVCAR-4 ovarian
UACC-257 melanoma = system: UACC-257 melanoma
NCI-H23 lung = system: NCI-H23 lung
UACC-62 melanoma = system: UACC-62 melanoma
A549 NSCLC = system: A549 NSCLC
MALME-3M melanoma = system: MALME-3M melanoma
MOLT-4 leukemia = system: MOLT-4 leukemia
U251 CNS = system: U251 CNS
K-562 leukemia = system: K-562 leukemia
CCRF-CEM leukemia = system: CCRF-CEM leukemia
LXFL 529 NSCLC = system: LXFL 529 NSCLC
SF-295 CNS = system: SF-295 CNS
HOP-62 NSCLC = system: HOP-62 NSCLC
HOP-92 NSCLC = system: HOP-92 NSCLC
NCI-H522 lung = system: NCI-H522 lung
SK-OV-3 ovarian = system: SK-OV-3 ovarian
SNB-75 CNS = system: SNB-75 CNS
HL-60(TB) leukemia = system: HL-60(TB) leukemia
RXF 393 renal = system: RXF 393 renal
NCI-H226 lung = system: NCI-H226 lung
SNB-78 CNS = system: SNB-78 CNS
OVCAR-5 ovarian = system: OVCAR-5 ovarian
A498 renal = system: A498 renal
DMS 273 small cell lung = system: DMS 273 small cell lung
DU-145 prostate = system: DU-145 prostate
CAKI-1 renal = system: CAKI-1 renal
MDA-N = system: MDA-N
T-47D breast = system: T-47D breast
BT-549 breast = system: BT-549 breast
ACHN renal = system: ACHN renal
MDA-MB-435 = system: MDA-MB-435
HS 578T breast = system: HS 578T breast
MDA-MB-231 breast = system: MDA-MB-231 breast
LOX IMVI melanoma = system: LOX IMVI melanoma
HCT-15 colon = system: HCT-15 colon
MCF7 breast = system: MCF7 breast
HCC-2998 colon = system: HCC-2998 colon
PC-3 prostate = system: PC-3 prostate
NCI/ADR-RES ovarian = system: NCI/ADR-RES ovarian
786-0 renal = system: 786-0 renal

COc1ccc(C2C(Cl)C(=O)N2NC(=O)c2ccccc2O)cc1 (stereo not drawn) gave a TGI (KM20L2 colon) of over 100 µM, a TGI (SF-539 CNS) of over 100 µM and a TGI (RPMI-8226 leukemia) of over 100 µM. It also gave a TGI (SNB-19 CNS) of over 100 µM, a TGI (SK-MEL-28 melanoma) of over 100 µM and a TGI (NCI-H460 lung) of over 100 µM. It also gave a TGI (KM12 colon) of over 100 µM, a TGI (UO-31 renal) of over 100 µM and a TGI (SK-MEL-2 melanoma) of over 100 µM. It also gave a TGI (SK-MEL-5 melanoma) of over 100 µM, a TGI (IGROV1 ovarian) of over 100 µM and a TGI (M19-MEL melanoma) of over 100 µM. It also gave a TGI (SF-268 CNS) of over 100 µM, a TGI (SN12C renal) of over 100 µM and a TGI (EKVX NSCLC) of over 100 µM. The TGI (DMS 114 small cell lung) was over 100 µM, the TGI (TK-10 renal) was over 100 µM and the TGI (OVCAR-8 ovarian) was over 100 µM. It also gave a TGI (HCT-116 colon) of over 100 µM, a TGI (SW-620 colon) of over 100 µM and a TGI (COLO 205 colon) of over 100 µM. For the same molecule, the TGI (M14 melanoma) was over 100 µM, the TGI (OVCAR-3 ovarian) was over 100 µM and the TGI (SR leukemia) was over 100 µM. For the same molecule, the TGI (HT29 colon) was over 100 µM, the TGI (OVCAR-4 ovarian) was over 100 µM and the TGI (UACC-257 melanoma) was over 100 µM. It also gave a TGI (NCI-H23 lung) of over 100 µM, a TGI (UACC-62 melanoma) of over 100 µM and a TGI (A549 NSCLC) of over 100 µM. The TGI (MALME-3M melanoma) was over 100 µM, the TGI (MOLT-4 leukemia) was over 100 µM and the TGI (U251 CNS) was over 100 µM. For the same molecule, the TGI (K-562 leukemia) was over 100 µM, the TGI (CCRF-CEM leukemia) was over 100 µM and the TGI (LXFL 529 NSCLC) was over 100 µM. For the same molecule, the TGI (SF-295 CNS) was over 100 µM, the TGI (HOP-62 NSCLC) was over 100 µM and the TGI (HOP-92 NSCLC) was over 100 µM. For the same molecule, the TGI (NCI-H522 lung) was over 100 µM, the TGI (SK-OV-3 ovarian) was over 100 µM and the TGI (SNB-75 CNS) was over 100 µM. It also gave a TGI (HL-60(TB) leukemia) of over 100 µM and a TGI (RXF 393 renal) of over 100 µM.
With N#CC1Sc2ccccc2-n2cccc21 (stereo not drawn) the TGI (SNB-19 CNS) was over 100 µM, the TGI (SK-MEL-28 melanoma) was over 100 µM and the TGI (NCI-H460 lung) was over 100 µM. For the same molecule, the TGI (KM12 colon) was over 100 µM, the TGI (UO-31 renal) was 93.3 µM and the TGI (IGROV1 ovarian) was over 100 µM. The TGI (M19-MEL melanoma) was over 100 µM, the TGI (SF-268 CNS) was 78.2 µM and the TGI (EKVX NSCLC) was over 100 µM. For the same molecule, the TGI (TK-10 renal) was over 100 µM, the TGI (NCI-H226 lung) was 87.6 µM and the TGI (M14 melanoma) was over 100 µM. For the same molecule, the TGI (SNB-78 CNS) was over 100 µM, the TGI (SR leukemia) was over 100 µM and the TGI (HT29 colon) was over 100 µM. It also gave a TGI (OVCAR-5 ovarian) of over 100 µM, a TGI (A498 renal) of over 100 µM and a TGI (NCI-H23 lung) of over 100 µM. For the same molecule, the TGI (UACC-62 melanoma) was 99.2 µM, the TGI (A549 NSCLC) was over 100 µM and the TGI (MOLT-4 leukemia) was over 100 µM. The TGI (U251 CNS) was over 100 µM, the TGI (K-562 leukemia) was 95.5 µM and the TGI (CCRF-CEM leukemia) was over 100 µM. For the same molecule, the TGI (HOP-62 NSCLC) was over 100 µM, the TGI (HOP-92 NSCLC) was over 100 µM and the TGI (NCI-H522 lung) was over 100 µM. It also gave a TGI (SK-OV-3 ovarian) of over 100 µM, a TGI (HL-60(TB) leukemia) of 61.6 µM and a TGI (DMS 273 small cell lung) of over 100 µM. For the same molecule, the TGI (RXF 393 renal) was 67.3 µM.
In the case of Cc1ccc(N=Nc2c(O)c(S(=O)(=O)O)cc3cc(S(=O)(=O)O)ccc23)c(C)c1, the TGI (DU-145 prostate) is reported as over 100 µM, the TGI (SF-539 CNS) is reported as over 100 µM and the TGI (RPMI-8226 leukemia) is reported as over 100 µM. For the same molecule, the TGI (CAKI-1 renal) was over 100 µM, the TGI (MDA-N) was over 100 µM and the TGI (SNB-19 CNS) was over 100 µM. It also gave a TGI (SK-MEL-28 melanoma) of over 100 µM, a TGI (NCI-H460 lung) of over 100 µM and a TGI (T-47D breast) of over 100 µM. It also gave a TGI (KM12 colon) of over 100 µM, a TGI (BT-549 breast) of over 100 µM and a TGI (ACHN renal) of over 100 µM. For the same molecule, the TGI (UO-31 renal) was over 100 µM, the TGI (SK-MEL-2 melanoma) was over 100 µM and the TGI (MDA-MB-435) was over 100 µM. It also gave a TGI (SK-MEL-5 melanoma) of over 100 µM, a TGI (HS 578T breast) of over 100 µM and a TGI (IGROV1 ovarian) of over 100 µM. It also gave a TGI (MDA-MB-231 breast) of over 100 µM, a TGI (SF-268 CNS) of over 100 µM and a TGI (SN12C renal) of over 100 µM. The TGI (EKVX NSCLC) was over 100 µM, the TGI (LOX IMVI melanoma) was over 100 µM and the TGI (TK-10 renal) was over 100 µM. For the same molecule, the TGI (OVCAR-8 ovarian) was over 100 µM, the TGI (HCT-116 colon) was over 100 µM and the TGI (HCT-15 colon) was over 100 µM. It also gave a TGI (SW-620 colon) of over 100 µM, a TGI (COLO 205 colon) of over 100 µM and a TGI (MCF7 breast) of over 100 µM. The TGI (NCI-H226 lung) was over 100 µM, the TGI (M14 melanoma) was over 100 µM and the TGI (OVCAR-3 ovarian) was over 100 µM. The TGI (SR leukemia) was over 100 µM, the TGI (HT29 colon) was over 100 µM and the TGI (OVCAR-4 ovarian) was over 100 µM. For the same molecule, the TGI (UACC-257 melanoma) was over 100 µM, the TGI (OVCAR-5 ovarian) was over 100 µM and the TGI (A498 renal) was over 100 µM. For the same molecule, the TGI (NCI-H23 lung) was over 100 µM, the TGI (UACC-62 melanoma) was over 100 µM and the TGI (A549 NSCLC) was over 100 µM. The TGI (HCC-2998 colon) was over 100 µM, the TGI (MALME-3M melanoma) was over 100 µM and the TGI (MOLT-4 leukemia) was over 100 µM. For the same molecule, the TGI (U251 CNS) was over 100 µM, the TGI (K-562 leukemia) was over 100 µM and the TGI (CCRF-CEM leukemia) was over 100 µM. It also gave a TGI (SF-295 CNS) of over 100 µM, a TGI (HOP-62 NSCLC) of over 100 µM and a TGI (HOP-92 NSCLC) of over 100 µM. The TGI (NCI-H522 lung) was over 100 µM, the TGI (SK-OV-3 ovarian) was over 100 µM and the TGI (PC-3 prostate) was over 100 µM. For the same molecule, the TGI (SNB-75 CNS) was over 100 µM, the TGI (HL-60(TB) leukemia) was over 100 µM and the TGI (NCI/ADR-RES ovarian) was over 100 µM. It also gave a TGI (RXF 393 renal) of over 100 µM and a TGI (786-0 renal) of over 100 µM.
For COc1ccc2c(c1)CC[C@@H]1C2CC[C@]2(C)C(=O)N(CCN3CCCC3)C(=O)CC12 (stereo partly drawn), the TGI (KM20L2 colon) was 55 µM, the TGI (RPMI-8226 leukemia) was 34.4 µM and the TGI (SNB-19 CNS) was over 100 µM. For the same molecule, the TGI (SK-MEL-28 melanoma) was 38.9 µM, the TGI (NCI-H460 lung) was over 100 µM and the TGI (KM12 colon) was over 100 µM. It also gave a TGI (ACHN renal) of over 100 µM, a TGI (UO-31 renal) of 49.9 µM and a TGI (SK-MEL-2 melanoma) of 32.2 µM. The TGI (IGROV1 ovarian) was over 100 µM, the TGI (M19-MEL melanoma) was 35.7 µM and the TGI (SF-268 CNS) was over 100 µM. It also gave a TGI (DMS 114 small cell lung) of 76.4 µM, a TGI (COLO 205 colon) of 37.6 µM and a TGI (M14 melanoma) of 31.1 µM. The TGI (SNB-78 CNS) was over 100 µM, the TGI (OVCAR-3 ovarian) was over 100 µM and the TGI (SR leukemia) was over 100 µM. The TGI (HT29 colon) was 34.8 µM, the TGI (OVCAR-4 ovarian) was over 100 µM and the TGI (UACC-257 melanoma) was 38.7 µM. It also gave a TGI (OVCAR-5 ovarian) of over 100 µM, a TGI (A498 renal) of over 100 µM and a TGI (NCI-H23 lung) of over 100 µM. It also gave a TGI (UACC-62 melanoma) of 35.1 µM, a TGI (MALME-3M melanoma) of 31.5 µM and a TGI (MOLT-4 leukemia) of 57.7 µM. For the same molecule, the TGI (U251 CNS) was over 100 µM, the TGI (K-562 leukemia) was 70.1 µM and the TGI (LXFL 529 NSCLC) was 89.6 µM. For the same molecule, the TGI (SF-295 CNS) was 42.1 µM, the TGI (HOP-62 NSCLC) was 66.6 µM and the TGI (HOP-92 NSCLC) was 81.8 µM. The TGI (NCI-H522 lung) was 52.7 µM, the TGI (SK-OV-3 ovarian) was over 100 µM and the TGI (SNB-75 CNS) was 87.1 µM. The TGI (HL-60(TB) leukemia) was 45.2 µM, the TGI (RXF 393 renal) was 86.7 µM and the TGI (786-0 renal) was 35.8 µM.
